Target: T1, FimH-CRD (Escherichia coli, UniProt P08191)
T1 construct: The first 177 amino acids of the FimH protein; thrombin tag (printed as 'fusion protein with thrombin') (cleaved yes); made in house; host or cells: bacteria (pET21b plasmid)
Test: Competitive binding assay by fluorescence polarization, assay 1 (compounds prepared by manual serial dilution)
Protocol: The first 177 amino acids of the FimH protein were expressed as a fusion protein with thrombin in a pET21b plasmid in bacteria. This FimH protein sequence contains the carbohydrate recognition domain (CRD) and shall be termed FimH-CRD. Following bacterial expression of the protein, the FimH-CRD protein was purified to homogeneity and the thrombin tag removed by protease cleavage. A competitive binding assay by fluorescence polarization was performed using 5 nM of the Alexa 647 mannoside probe and 60 nM of the FimH-CRD. The samples are assayed in a low volume 384 well microtiter plate in a final volume of 20 μl. The final assay buffer conditions are the following, 50 mM Tris-Cl, ph 7.0, 100 mM NaCl, 1 mM EDTA, 5 mM β-mercaptoethanol, 0.05% BSA and 2.5% DMSO. Two assays are performed for FimH, termed assay 1 or assay 2. The assay conditions are the same for both assays except the following: assay 1 has compounds prepared by manual dilution in a serial dilution factor with 12-point dose response while assay 2 has compounds prepared by a robotics system also through a serial dilution factor (12 point dose response) and initially prepared in duplicate in 384 well-Corning polypropylene round bottom plates. The assay 2 plates have compound which is then frozen and must be thawed prior to use. Initially the Alexa 647 probe and the FimH-CRD are added to the assay buffer and then 0.5 μl of test compound (assay 1 or 2) between 0.4 nM to 75 μM final concentration are added (12 point titration with 3-fold serial dilution). Control wells for the Alexa 647 probe are prepared with the same conditions except for the addition of the FimH-CRD protein. Plates are then incubated for 5 hrs at room temperature in the dark and under humid conditions to prevent drying. Plates are read using the SpectraMax Paradigm multi-mode plate reader and the appropriate fluorescent polarization detection cartridge (Alexa-647).
Alexa 647 mannoside probe is prepared using the similar procedure reported for FAM mannoside (Han, Z. et. al., 2010, J. Med. Chem., 53, 4779) and is described in the scheme below.
To a blue colored stirred solution of (2S,3S,4S,5S,6R)-2-(4-aminobutoxy)-6-(hydroxymethyl)tetrahydropyran-3,4,5-triol (2.21 mg, 0.009 mmol) and the (2E)-2-[(2E,4E)-5-[3,3-dimethyl-5-sulfonato-1-(3-sulfonatopropyl)indol-1-ium-2-yl]penta-2,4-dienylidene]-3-[6-(2,5-dioxopyrrolidin-1-yl)oxy-6-oxo-hexyl]-3-methyl-1-(3-sulfonatopropyl)indoline-5-sulfonate (Potassium Ion (3)) (4.9 mg, 0.0044 mmol) in DMF (44 μL) is added Et3N (5.4 mg, 7.0 μL, 0.053 mmol) at RT. The solution is stirred at room temperature over night, concentrated, dissolved in water and purified on 12 g C-18 silica gel cartridge on Isolera system using acetonitrile in water (0 to 40%, 10 CV) and followed by lyophilization to afford Alexa 647 mannoside probe (3.3 mg, 34%) as deep blue solid.
The Kd values of the compounds are determined from dose response curves using twelve concentrations per compound in duplicate. Curves are fitted to data points using Fluorescence Polarization competitive displacement analysis, and Kds are interpolated from the resulting curves using GraphPad Prism software, version […] (GraphPad software Inc., San Diego, Calif., USA).

T1 sequence (P08191 22-177): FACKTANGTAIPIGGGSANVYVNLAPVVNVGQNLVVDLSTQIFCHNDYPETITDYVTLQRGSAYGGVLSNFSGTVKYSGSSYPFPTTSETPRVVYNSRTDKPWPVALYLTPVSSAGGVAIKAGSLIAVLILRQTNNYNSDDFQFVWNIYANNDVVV

Q: How did the IC50 turn out when OC[C@H]1O[C@H](c2cccc(O)c2)[C@@H](O)[C@@H](O)[C@@H]1O [Compound 1, (2R,3S,4R,5S,6R)-2-(hydroxymethyl)-6-(3-hydroxyphenyl)tetrahydropyran-3,4,5-triol] was run?
A: 53 nM

Q: And the Kd?
A: 12.3 ± 5.1 nM

Q: Which IC50 does the source give for CNC(=O)c1ccc(-c2cccc([C@H]3O[C@H](CO)[C@@H](O)[C@H](O)[C@@H]3O)c2)cc1 [Compound 2, N-methyl-4-[3-[(2R,3S,4R,5S,6R)-3,4,5-trihydroxy-6-(hydroxymethyl)tetrahydropyran-2-yl]phenyl]benzamide] here?
A: 29 nM

Q: And the Kd?
A: < 5 nM

Q: Which results are given for CNC(=O)c1ccc(Oc2cccc([C@H]3O[C@H](CO)[C@@H](O)[C@H](O)[C@@H]3O)c2)cc1 [Compound 3, N-methyl-4-[3-[(2R,3S,4R,5S,6R)-3,4,5-trihydroxy-6-(hydroxymethyl)tetrahydropyran-2-yl]phenoxy]benzamide]?
A: IC50: 39 nM; Kd: 7.2 ± 1.1 nM

Q: What does the source list for CNC(=O)c1cccc(Oc2cccc([C@H]3O[C@H](CO)[C@@H](O)[C@H](O)[C@@H]3O)c2)c1 [Compound 5, N-methyl-3-[3-[(2R,3S,4R,5S,6R)-3,4,5-trihydroxy-6-(hydroxymethyl)tetrahydropyran-2-yl]phenoxy]benzamide]?
A: IC50: 18 nM; Kd: < 5 nM

Q: How did the IC50 turn out when Cc1ccc(-c2cccc([C@H]3O[C@H](CO)[C@@H](O)[C@H](O)[C@@H]3O)c2)cc1 [Compound 6, (2R,3S,4R,5S,6R)-2-(hydroxymethyl)-6-(4′-methyl-[1,1′-biphenyl]-3-yl)tetrahydro-2H-pyran-3,4,5-triol] was run?
A: 87 nM

Q: What about the Kd of the same compound?
A: 13.7 ± 7.7 nM

Q: How did the IC50 turn out when CC(=O)Nc1cccc(-c2cccc([C@H]3O[C@H](CO)[C@@H](O)[C@H](O)[C@@H]3O)c2)c1 [Compound 7, N-[3-[3-[(2R,3S,4R,5S,6R)-3,4,5-trihydroxy-6-(hydroxymethyl)tetrahydropyran-2-yl]phenyl]phenyl]acetamide] was run?
A: 70 nM

Q: What about the Kd of the same compound?
A: 14.3 ± 9.1 nM

Q: How did the IC50 turn out when OC[C@H]1O[C@H](c2cccc(-c3ccsc3)c2)[C@@H](O)[C@@H](O)[C@@H]1O [Compound 8, (2R,3S,4R,5S,6R)-2-(hydroxymethyl)-6-[3-(3-thienyl)phenyl]tetrahydropyran-3,4,5-triol] was run?
A: 155 nM

Q: What about the Kd of the same compound?
A: 40.1 ± 17.1 nM

Q: Which IC50 does the source give for OC[C@H]1O[C@H](c2cccc(-c3cccnc3)c2)[C@@H](O)[C@@H](O)[C@@H]1O [Compound 9, (2R,3S,4R,5S,6R)-2-(hydroxymethyl)-6-[3-(3-pyridyl)phenyl]tetrahydropyran-3,4,5-triol] here?
A: 163 nM

Q: And the Kd?
A: 28.5 ± 23.7 nM

Q: With OC[C@H]1O[C@H](c2cccc(-c3ccc4c(c3)OCO4)c2)[C@@H](O)[C@@H](O)[C@@H]1O [Compound 11, (2R,3S,4R,5S,6R)-2-[3-(1,3-benzodioxol-5-yl)phenyl]-6-(hydroxymethyl)tetrahydropyran-3,4,5-triol] as the compound, how does the IC50 read?
A: 88 nM

Q: And the Kd?
A: 11.9 ± 7.3 nM

Q: Which results are given for OCc1ccccc1-c1cccc([C@H]2O[C@H](CO)[C@@H](O)[C@H](O)[C@@H]2O)c1 [Compound 13, (2R,3S,4R,5S,6R)-2-(hydroxymethyl)-6-(2′-(hydroxymethyl)-[1,1′-biphenyl]-3-yl)tetrahydro-2H-pyran-3,4,5-triol]?
A: IC50: 195 nM; Kd: 39.9 ± 23.6 nM

Q: Which results are given for CN(C)Cc1ccccc1-c1cccc([C@H]2O[C@H](CO)[C@@H](O)[C@H](O)[C@@H]2O)c1 [Compound 14, (2R,3S,4R,5S,6R)-2-(2′-((dimethylamino)methyl)-[1,1′-biphenyl]-3-yl)-6-(hydroxymethyl)tetrahydro-2H-pyran-3,4,5-triol]?
A: IC50: 551 nM; Kd: 77.8 ± 70.4 nM

Q: Which results are given for OC[C@H]1O[C@H](c2cccc(-c3ccc4[nH]ccc4c3)c2)[C@@H](O)[C@@H](O)[C@@H]1O [Compound 15]?
A: IC50: 306 nM; Kd: 48.2 ± 47.7 nM

Q: With Nc1cccc(-c2cccc([C@H]3O[C@H](CO)[C@@H](O)[C@H](O)[C@@H]3O)c2)c1 [Compound 16, (2R,3S,4R,5S,6R)-2-[3-(3-aminophenyl)phenyl]-6-(hydroxymethyl)tetrahydropyran-3,4,5-triol] as the compound, how does the IC50 read?
A: 247 nM

Q: And the Kd?
A: 37 ± 33.7 nM

Q: How did the IC50 turn out when OC[C@H]1O[C@H](c2cccc(-c3ccc4cc(O)ccc4c3)c2)[C@@H](O)[C@@H](O)[C@@H]1O [Compound 17, (2R,3S,4R,5S,6R)-2-(hydroxymethyl)-6-[3-(6-hydroxy-2-naphthyl)phenyl]tetrahydropyran-3,4,5-triol] was run?
A: 48 nM

Q: What about the Kd of the same compound?
A: 8.6 ± 2.5 nM

Q: For Cn1nc(C(F)(F)F)cc1-c1cccc([C@H]2O[C@H](CO)[C@@H](O)[C@H](O)[C@@H]2O)c1 [Compound 18, (2R,3S,4R,5S,6R)-2-(hydroxymethyl)-6-(3-(1-methyl-3-(trifluoromethyl)-1H-pyrazol-5-yl)phenyl)tetrahydro-2H-pyran-3,4,5-triol], which IC50 is on record?
A: 160 nM

Q: What about the Kd of the same compound?
A: 33.7 ± 15.8 nM

Q: How did the IC50 turn out when CCCOc1ccc(F)c(-c2cccc([C@H]3O[C@H](CO)[C@@H](O)[C@H](O)[C@@H]3O)c2)c1 [Compound 19] was run?
A: 52 nM

Q: What about the Kd of the same compound?
A: 6.2 ± 1.2 nM

Q: Which results are given for OC[C@H]1O[C@H](c2cccc(-c3ccc4c(c3)OCCO4)c2)[C@@H](O)[C@@H](O)[C@@H]1O [Compound 20, (2R,3S,4R,5S,6R)-2-(3-(2,3-dihydrobenzo[b][1,4]dioxin-6-yl)phenyl)-6-(hydroxymethyl)tetrahydro-2H-pyran-3,4,5-triol]?
A: IC50: 55 nM; Kd: 7.1 ± 2.4 nM

Q: Which results are given for CS(=O)(=O)c1ccc(-c2cccc([C@H]3O[C@H](CO)[C@@H](O)[C@H](O)[C@@H]3O)c2)cc1 [Compound 21]?
A: IC50: 92 nM; Kd: 12.3 ± 5.1 nM

Q: Which IC50 does the source give for O=C(Nc1ccccc1)c1cccc([C@H]2O[C@H](CO)[C@@H](O)[C@H](O)[C@@H]2O)c1 [Compound 23, N-phenyl-3-[(2R,3S,4R,5S,6R)-3,4,5-trihydroxy-6-(hydroxymethyl)tetrahydropyran-2-yl]benzamide] here?
A: 16 nM

Q: And the Kd?
A: 38.4 ± 23.6 nM

Q: Which results are given for Cc1cc(NC(=O)c2cccc([C@H]3O[C@H](CO)[C@@H](O)[C@H](O)[C@@H]3O)c2)n(Cc2ccccc2)n1 [Compound 24, N-(1-benzyl-3-methyl-1H-pyrazol-5-yl)-3-((2R,3S,4R,5S,6R)-3,4,5-trihydroxy-6-(hydroxymethyl)tetrahydro-2H-pyran-2-yl)benzamide]?
A: IC50: 243 nM; Kd: 56.7 ± 0.2 nM

Q: What does the source list for Cc1nnc(NC(=O)c2cccc([C@H]3O[C@H](CO)[C@@H](O)[C@H](O)[C@@H]3O)c2)s1 [Compound 25, N-(5-methyl-1,3,4-thiadiazol-2-yl)-3-((2R,3S,4R,5S,6R)-3,4,5-trihydroxy-6-(hydroxymethyl)tetrahydro-2H-pyran-2-yl)benzamide]?
A: IC50: 36 nM; Kd: 7 ± 0.5 nM

Q: Which results are given for O=C(Nc1ccc2ncccc2c1)c1cccc([C@H]2O[C@H](CO)[C@@H](O)[C@H](O)[C@@H]2O)c1 [Compound 26, N-(quinolin-6-yl)-3-((2R,3S,4R,5S,6R)-3,4,5-trihydroxy-6-(hydroxymethyl)tetrahydro-2H-pyran-2-yl)benzamide]?
A: IC50: 100 nM; Kd: 16.8 ± 7.8 nM

Q: Which results are given for O=C(Nc1ccc2[nH]ccc2c1)c1cccc([C@H]2O[C@H](CO)[C@@H](O)[C@H](O)[C@@H]2O)c1 [Compound 27, N-(1H-indol-5-yl)-3-((2R,3S,4R,5S,6R)-3,4,5-trihydroxy-6-(hydroxymethyl)tetrahydro-2H-pyran-2-yl)benzamide]?
A: IC50: 138 nM; Kd: 37 ± 3.1 nM

Q: How did the IC50 turn out when Cc1cnc(NC(=O)c2cccc([C@H]3O[C@H](CO)[C@@H](O)[C@H](O)[C@@H]3O)c2)s1 [Compound 28, N-(5-methylthiazol-2-yl)-3-((2R,3S,4R,5S,6R)-3,4,5-trihydroxy-6-(hydroxymethyl)tetrahydro-2H-pyran-2-yl)benzamide] was run?
A: 56 nM

Q: And the Kd?
A: 16.7 ± 7.5 nM

Q: How did the IC50 turn out when O=C(Nc1cccnc1)c1cccc([C@H]2O[C@H](CO)[C@@H](O)[C@H](O)[C@@H]2O)c1 [Compound 29, N-(pyridin-3-yl)-3-((2R,3S,4R,5S,6R)-3,4,5-trihydroxy-6-(hydroxymethyl)tetrahydro-2H-pyran-2-yl)benzamide] was run?
A: 59 nM

Q: And the Kd?
A: 18.1 ± 5.9 nM

Reference: patent publication US20130261077A1 (priority 2012, published 2013)
